Results from patent publication US10683273B2, “Compounds as DNA probes, methods and applications thereof” (JAWAHARLAL NEHRU CENTRE FOR ADVANCED SCIENTIFIC RESEARCH, priority 2015, dated 2020).

Tests used:
CT-DNA = experiment: Switch-on NIR-fluorescence enhancement with DNA; type: binding, Calf
Procedure: All the chemicals, reagents, single-stranded oligos (dA20, dT20, dG20, dC20), self-complementary oligos {d(ATAT)5, (D1)mix, Drew-AT, Calf-Thymus DNA (CT-DNA), (DM1, DM2, DM3, DM4, DM5, DM6 and DM7)}, RNA, were purchased from Sigma-Aldrich. ^1H and ^13C NMR spectra were recorded on a Bruker AV-400 MHz spectrometer with chemical shifts reported as parts per million (ppm) (in DMSO-d6, tetramethylsilane as an internal standard) at 20° C. UV-vis absorption and emission spectra were measured in quartz cuvettes of 1 cm path length. High resolution mass spectra (HRMS) were obtained on Agilent Technologies 6538 UHD Accurate-Mass Q-TOF LC/MS spectrometer. All biophysical studies (UV-vis, fluorescence and Cirular dichroism) are carried out at the concentration 0-5 μM of probe, volume=500 μL, temperature=25° C. and time of incubation=2 minutes. […]
The UV-vis absorption and emission spectra are recorded on Agilent Technologies Cary series UV-vis-NIR absorbance and Cary eclipse fluorescence spectrophotometers, respectively. […] Absorption is monitored at 260 nm with regular 5° C. intervals. Melting temperatures (Tm) of DNA samples are calculated from the first derivatives of the absorption vs. temperature curves (thermal denaturation or melting curves) obtained by monitoring at 260 nm. […]

5′-TAATTA-3′ = experiment: Fluorescence enhancement, local variations 5′-X(AATT)Y-3′; type: binding; conditions: folds lesser than 5′-AATT-3′ sequence
Procedure: (§1) All the chemicals, reagents, single-stranded oligos (dA20, dT20, dG20, dC20), self-complementary oligos {d(ATAT)5, (D1)mix, Drew-AT, Calf-Thymus DNA (CT-DNA), (DM1, DM2, DM3, DM4, DM5, DM6 and DM7)}, RNA, were purchased from Sigma-Aldrich. ^1H and ^13C NMR spectra were recorded on a Bruker AV-400 MHz spectrometer with chemical shifts reported as parts per million (ppm) (in DMSO-d6, tetramethylsilane as an internal standard) at 20° C. UV-vis absorption and emission spectra were measured in quartz cuvettes of 1 cm path length. High resolution mass spectra (HRMS) were obtained on Agilent Technologies 6538 UHD Accurate-Mass Q-TOF LC/MS spectrometer. All biophysical studies (UV-vis, fluorescence and Cirular dichroism) are carried out at the concentration 0-5 μM of probe, volume=500 μL, temperature=25° C. and time of incubation=2 minutes. HeLa cells and MCF7 cells used in the biological studies are obtained from “Molecular reproduction, development and genetics lab, Indian institute of science, Bangalore, India”
(§2) Stock solutions of QCy-DT are prepared in double-distilled (dd) water in the order of 10^−3 M and stored at about −10° C. […]
(§3) The UV-vis absorption and emission spectra are recorded on Agilent Technologies Cary series UV-vis-NIR absorbance and Cary eclipse fluorescence spectrophotometers, respectively. […] Absorption is monitored at 260 nm with regular 5° C. intervals. Melting temperatures (Tm) of DNA samples are calculated from the first derivatives of the absorption vs. temperature curves (thermal denaturation or melting curves) obtained by monitoring at 260 nm.
(§4) To understand finer details of the interactions of QCy-DT with local variations around 5′-AATT-3′ sequence in the minor groove of DNA duplex, fluorescence studies are performed in the presence of DNA containing core hexanucleotide sequences such as 5′-X(AATT)Y-3′ (where X=A/T/G/C and Y is complementary base of X) (FIG. 5a). […] Remarkably, enormous fluorescence enhancement is observed in the presence of DNA with 5′-AAATTT-3′ core, which is ˜4-folds higher than the DNA with 5′-AATT-3′ core sequence alone. […]

[1] = test system: DNA containing 5′-CAATTG-3′ core; experiment: as above; type: binding
Procedure: as §1, §2, §3, §4

[2] = test system: DNA containing 5′-GAATTC-3′ core; experiment: as above; type: binding
Procedure: as §1, §2, §3, §4

(A-T)20 = experiment: Fluorescence quantum yield in presence of DNA; type: binding; conditions: in presence of (A-T)20
Procedure: (§5) Cresyl violet perchlorate in ethanol (ϕ=0.54) is used as the standard for the fluorescence quantum yield calculation using the absorption of the test sample. The emission spectral area is obtained in the 550-800 nm regions. Dilute solutions (10^−6 M) are used to minimize reabsorption effects of the dyes. Quantum yields are determined using the following equation, ϕs=ϕr(Fs/Fr)×(Ar/As)×(ns^2/nr^2)
(§6) Where, ϕr and ϕs are the quantum yield of reference and sample respectively, Fr and Fs are the integrated intensities (areas) of standard and sample spectra, nr and ns are the refractive indices of the reference and sample solution, Ar and As are the absorbance intensities of reference and sample respectively.

(D1)mix = experiment: Fluorescence quantum yield in presence of DNA; type: binding
Procedure: as §5, §6

Drew-AT = experiment: Fluorescence quantum yield in presence of DNA; type: binding
Procedure: as §5, §6

d(ATAT)5 = experiment: Fluorescence quantum yield in presence of DNA; type: binding; conditions: in presence of D(ATAT)5
Procedure: as §5, §6

## C[n+]1c(/C=C/c2ccc(O)c(/C=C/c3sc4ccccc4[n+]3C)c2)sc2ccccc21 [QCy-DT, quinone cyanine-dithiazole]
CT-DNA
  fluorescence enhancement: ~40 fold
5′-TAATTA-3′
  fluorescence enhancement with T at X in 5′-X(AATT)Y-3′, lesser than 5′-AATT-3′: ~1.5 fold
[1]
  fluorescence enhancement: very weak fluorescence enhancement
[2]
  fluorescence enhancement: very weak fluorescence enhancement
(A-T)20
  Quantum Yield (ΦF): ~0.32
(D1)mix
  Quantum Yield (ΦF): 0.08
Drew-AT
  Quantum Yield (ΦF): ~0.25
d(ATAT)5
  Quantum Yield (ΦF): 0.08
